These results are taken from patent US11634486B2, “Anti-SEZ6L2 antibodies and antibody drug conjugates” (Bluefin BioMedicine, Inc., priority 2016, dated 2023).

Structures are written as SMILES.

The experiment concerns small cell lung cancer cell line NCI-H209. The experiment is described as follows: ADC combined with PARP inhibitor, cell viability. Type of experiment: cell-based, human. The settings on record: olaparib 10 nM to 10 uM, six days.

Method: Briefly, the small cell lung cancer cell line NCI-H209, which expresses ˜10,000 copies of SEZ6L2 on the cell surface, was seeded onto 96 well plate at 5000 cells/well Immediately after seeding, 10 pM of 3E2-PBD or isotype control hIgG-PBD (bearing a drug antibody ratio (DAR) of 1.7 and 2.5 respectively) were added to the wells in complete culture medium. A PARP inhibitor (olaparib) was then added to these wells such that the final concentration ranged from 10 nM to 10 uM. The PARP inhibitor was also tested on cells without an ADC. Each treatment was replicated in 2 wells and after six days, the PARP inhibitor plus modulator-mediated PBD cytotoxicity was assessed by quantifying the remaining number of live cells using Cell Titer Glo™. Cell viability was graphed by Prism™ using ratio of cell viability of test conditions to that of control wells treated with growth medium only.

For `O=C(c1cc(Cc2n[nH]c(=O)c3ccccc23)ccc1F)N1CCN(C(=O)C2CC2)CC1` [olaparib, reference compound], the “percent viable cells, PARP inhibitor alone” value is reported as “responded in a dose dependent manner”.
